According to publication PMC3682423 (The FEBS journal, 2011):

Experiments:
[1] = target: isolated HIV RNase H domain (p15) (Human immunodeficiency virus type 1 group M subtype B, UniProt P03366); assay: Quenching of intrinsic fluorescence of the isolated RNase H domain; type: binding, HIV-1
[2] = target: K103N RT RDDP (Human immunodeficiency virus type 1 group M subtype B, UniProt P03366, K702N); assay: biochemical; parameters: species or system HIV-1
[3] = target: Y181C RT RDDP (Human immunodeficiency virus type 1 group M subtype B, UniProt P03366, Y780C); assay: biochemical; parameters: species or system HIV-1
[4] = target: wt HIV-1 RT-associated RNase H activity (Human immunodeficiency virus type 1 group M subtype B, UniProt P03366); assay: biochemical; type: biochemical
[5] = target: K103N RT RNase H (Human immunodeficiency virus type 1 group M subtype B, UniProt P03366, K702N); assay: biochemical; parameters: species or system HIV-1
[6] = target: wt HIV-1 RT-associated RDDP activity (Human immunodeficiency virus type 1 group M subtype B, UniProt P03366); assay: biochemical
[7] = target: Y181C RT RNase H (Human immunodeficiency virus type 1 group M subtype B, UniProt P03366, Y780C); assay: RNase H polymerase-independent cleavage assay, Y181C RT; type: biochemical, HIV-1

SMILES | IC50 [1] [µM] | IC50 [2] [µM] | IC50 [3] [µM] | IC50 [4] [µM] | inhibition of wt RT-associated RNase H function (in words) ([4]; wt RT) | IC50 [5] [µM] | IC50 [6] [µM] | IC50 [7] [µM]
O=C1Cc2ccccc2C(=O)N1O [2-hydroxy-1,2,3,4-tetrahydroisoquinoline-1,3-dione] | 52 |  |  |  |  |  |  | 
O=C1c2ccccc2C(=O)c2c1ccc(O)c2O [Alizarine, alizarine] |  | 68 ± 5 | > 100 | > 100 | inactive | > 100 | 79 ± 8 | > 100
